Reference: article PMC12298351, “Novel 3,19-(N-Phenyl-3-(4-fluorophenyl)-pyrazole) Acetal of Andrographolide Promotes Cell Cycle Arrest and Apoptosis in MDA-MB-231 Breast Cancer Cells” (Pharmaceuticals, 2025)

What was measured:
[1] = system: NCI-H23; settings: for Total growth inhibition (TGI) / CC50: NCI-H23, Non-Small Cell Lung; for GI50: NCI-H23, Non-Small-Cell Lung; for CC50: read-out: 50% lethal concentration (LC50)
[2] = system: SF-295; settings: SF-295, CNS; for CC50: read-out: 50% lethal concentration (LC50)
[3] = system: M14; type: cell-based; settings: M14, Melanoma
[4] = DPPH radical scavenging assay; settings: 25 µM test compound, 0.1 mM DPPH, acetonitrile, 30 min
In short: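 Compounds at 25 µM in acetonitrile mixed 1:2 with 0.1 mM DPPH in acetonitrile, kept 30 min in the dark at room temperature. Absorbance read at 517 nm; % scavenging = (Ac − As)/Ac × 100, Ac being DPPH blank. Ascorbic acid positive control.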

[5] = system: HCT-15; settings: HCT-15, Colon; for CC50: read-out: 50% lethal concentration (LC50)
[6] = system: MOLT-4; settings: MOLT-4, Leukemia; for CC50: read-out: 50% lethal concentration (LC50)
[7] = system: HOP-62; settings: for Total growth inhibition (TGI) / CC50: HOP-62, Non-Small Cell Lung; for GI50: HOP-62, Non-Small-Cell Lung; for CC50: read-out: 50% lethal concentration (LC50)
[8] = system: CCRF-CEM; settings: for CC50: read-out: 50% lethal concentration (LC50), Leukemia
[9] = system: SR; settings: for GI50 / Total growth inhibition (TGI): Leukemia; for CC50: read-out: 50% lethal concentration (LC50), Leukemia
[10] = system: TK-10; type: cell-based; settings: TK-10, Renal
[11] = system: HL-60(TB); settings: for CC50: read-out: 50% lethal concentration (LC50), Leukemia
[12] = system: OVCAR-8; settings: OVCAR-8, Ovarian; for CC50: read-out: 50% lethal concentration (LC50)
[13] = system: RXF 393; settings: RXF 393, Renal; for CC50: read-out: 50% lethal concentration (LC50)
[14] = system: T-47D; settings: for GI50 / Total growth inhibition (TGI): Breast; for CC50: read-out: 50% lethal concentration (LC50), Breast
[15] = system: MDA-MB-435; settings: MDA-MB-435, Melanoma; for CC50: read-out: 50% lethal concentration (LC50)
[16] = system: SK-MEL-2; settings: SK-MEL-2, Melanoma
[17] = system: SF-539; settings: SF-539, CNS; for CC50: read-out: 50% lethal concentration (LC50)
[18] = system: PC-3; settings: PC-3, Prostate; for CC50: read-out: 50% lethal concentration (LC50)
[19] = system: RPMI-8226; settings: RPMI-8226, Leukemia; for CC50: read-out: 50% lethal concentration (LC50)
[20] = system: HCT-116; type: cell-based; settings: HCT-116, Colon; for CC50: read-out: 50% lethal concentration (LC50)
[21] = system: OVCAR-4; type: cell-based; settings: OVCAR-4, Ovarian; for CC50: read-out: 50% lethal concentration (LC50)
[22] = system: U251; settings: U251, CNS
[23] = system: UACC-62; settings: UACC-62, Melanoma; for CC50: read-out: 50% lethal concentration (LC50)
[24] = system: NCI-H522; settings: for Total growth inhibition (TGI) / CC50: NCI-H522, Non-Small Cell Lung; for GI50: NCI-H522, Non-Small-Cell Lung; for CC50: read-out: 50% lethal concentration (LC50)
[25] = system: OVCAR-3; settings: OVCAR-3, Ovarian; for CC50: read-out: 50% lethal concentration (LC50)
[26] = system: A498; settings: A498, Renal; for CC50: read-out: 50% lethal concentration (LC50)
[27] = system: HCC-2998; settings: HCC-2998, Colon
[28] = system: EKVX; settings: for Total growth inhibition (TGI): Non-Small Cell Lung; for GI50: Non-Small-Cell Lung; for CC50: read-out: 50% lethal concentration (LC50), Non-Small Cell Lung

`C=C1CCC2C3(C)COC(c4cn(-c5ccccc5)nc4-c4ccc(Br)cc4)OC3CCC2(C)C1CC=C1C(=O)OCC1O` (centres unmarked) [1h] showed a Total growth inhibition (TGI) [1] of 3.62 µM, a GI50 [1] of 1.71 µM and a CC50 [1] of 7.67 µM. The GI50 [2] was 1.54 µM, the Total growth inhibition (TGI) [2] was 2.93 µM and the CC50 [2] was 5.57 µM. For the same molecule, the GI50 [3] was 1.71 µM, the Total growth inhibition (TGI) [3] was 3.55 µM and the “% DPPH radical scavenging activity” value [4] was 57.51%. The GI50 [5] was 1.6 µM, the Total growth inhibition (TGI) [5] was 3.3 µM and the CC50 [5] was 6.83 µM. It also gave a GI50 [6] of 0.61 µM, a CC50 [6] of over 100 µM and a Total growth inhibition (TGI) [7] of 3.83 µM. For the same molecule, the GI50 [7] was 1.8 µM, the CC50 [7] was 8.12 µM and the GI50 ([8]; Leukemia) was 0.48 µM. It also gave a CC50 [8] of over 100 µM, a GI50 [9] of 1.69 µM and a Total growth inhibition (TGI) [9] of 8.13 µM. It also gave a CC50 [9] of over 100 µM, a GI50 [10] of 1.19 µM and a GI50 ([11]; Leukemia) of 0.67 µM. The CC50 [11] was over 100 µM, the GI50 [12] was 1.55 µM and the Total growth inhibition (TGI) [12] was 3.4 µM. The CC50 [12] was 7.45 µM, the GI50 [13] was 1.71 µM and the Total growth inhibition (TGI) [13] was 3.23 µM. For the same molecule, the CC50 [13] was 6.11 µM, the GI50 [14] was 1.18 µM and the Total growth inhibition (TGI) [14] was 3.13 µM. For the same molecule, the CC50 [14] was 8.33 µM, the GI50 [15] was 1.67 µM and the Total growth inhibition (TGI) [15] was 3.34 µM. The CC50 [15] was 6.67 µM, the GI50 [16] was 1.76 µM and the Total growth inhibition (TGI) [16] was 3.18 µM. For the same molecule, the GI50 [17] was 1.76 µM, the Total growth inhibition (TGI) [17] was 3.18 µM and the CC50 [17] was 5.73 µM. The GI50 [18] was 2.03 µM, the CC50 [18] was over 100 µM and the GI50 [19] was 1.28 µM. The Total growth inhibition (TGI) [19] was over 100 µM, the CC50 [19] was over 100 µM and the GI50 [20] was 0.94 µM. For the same molecule, the Total growth inhibition (TGI) [20] was 2.48 µM, the CC50 [20] was 6.3 µM and the GI50 [21] was 1.89 µM. It also gave a Total growth inhibition (TGI) [21] of 4.27 µM, a CC50 [21] of over 100 µM and a GI50 [22] of 2.11 µM. For the same molecule, the Total growth inhibition (TGI) [22] was 2.89 µM, the GI50 [23] was 1.58 µM and the Total growth inhibition (TGI) [23] was 3.13 µM. It also gave a CC50 [23] of 6.2 µM, a Total growth inhibition (TGI) [24] of 3.37 µM and a GI50 [24] of 1.69 µM. For the same molecule, the CC50 [24] was 6.68 µM, the GI50 [25] was 1.52 µM and the Total growth inhibition (TGI) [25] was 3.32 µM. It also gave a CC50 [25] of 7.25 µM, a GI50 [26] of 4.35 µM and a Total growth inhibition (TGI) [26] of 1.66 µM. It also gave a CC50 [26] of 53.6 µM, a GI50 [27] of 1.83 µM and a Total growth inhibition (TGI) [27] of 3.49 µM. It also gave a Total growth inhibition (TGI) [28] of 5.35 µM, a GI50 [28] of 2.21 µM and a CC50 [28] of over 100 µM.

`C=C1CCC2C3(C)COC(c4cn(-c5ccccc5)nc4-c4ccc(Cl)cc4)OC3CCC2(C)C1CC=C1C(=O)OCC1O` (centres unmarked) [1g] showed a Total growth inhibition (TGI) [1] of 3.59 µM, a GI50 [1] of 1.73 µM and a CC50 [1] of 7.45 µM. It also gave a GI50 [2] of 1.5 µM, a Total growth inhibition (TGI) [2] of 2.88 µM and a CC50 [2] of 5.51 µM. For the same molecule, the GI50 [3] was 1.84 µM, the Total growth inhibition (TGI) [3] was 3.69 µM and the “% DPPH radical scavenging activity” value [4] was 57.45%. The GI50 [5] was 1.59 µM, the Total growth inhibition (TGI) [5] was 3.21 µM and the CC50 [5] was 6.51 µM. The GI50 [6] was 0.88 µM, the Total growth inhibition (TGI) [6] was over 100 µM and the CC50 [6] was over 100 µM. It also gave a Total growth inhibition (TGI) [7] of 4.95 µM, a GI50 [7] of 2.36 µM and a CC50 [7] of over 100 µM. It also gave a GI50 ([8]; Leukemia) of 0.92 µM, a Total growth inhibition (TGI) ([8]; Leukemia) of over 100 µM and a CC50 [8] of over 100 µM. It also gave a GI50 [9] of 2.53 µM, a Total growth inhibition (TGI) [9] of over 100 µM and a CC50 [9] of over 100 µM. For the same molecule, the GI50 [10] was 1.33 µM, the Total growth inhibition (TGI) [10] was 2.74 µM and the GI50 ([11]; Leukemia) was 2.67 µM. The Total growth inhibition (TGI) ([11]; Leukemia) was over 100 µM, the CC50 [11] was over 100 µM and the GI50 [12] was 1.95 µM. The Total growth inhibition (TGI) [12] was 4.97 µM, the CC50 [12] was over 100 µM and the GI50 [13] was 1.79 µM. It also gave a Total growth inhibition (TGI) [13] of 3.37 µM, a CC50 [13] of 6.33 µM and a GI50 [14] of 1.31 µM. The Total growth inhibition (TGI) [14] was 3.6 µM, the CC50 [14] was over 100 µM and the GI50 [15] was 1.65 µM. For the same molecule, the Total growth inhibition (TGI) [15] was 3.28 µM, the CC50 [15] was 6.51 µM and the GI50 [16] was 1.77 µM. For the same molecule, the Total growth inhibition (TGI) [16] was 3.25 µM, the GI50 [17] was 1.72 µM and the Total growth inhibition (TGI) [17] was 3.12 µM. It also gave a CC50 [17] of 5.66 µM, a GI50 [18] of 2.07 µM and a Total growth inhibition (TGI) [18] of over 100 µM. It also gave a CC50 [18] of over 100 µM, a GI50 [19] of 2.46 µM and a Total growth inhibition (TGI) [19] of over 100 µM. It also gave a CC50 [19] of over 100 µM, a GI50 [20] of 1.2 µM and a Total growth inhibition (TGI) [20] of 2.53 µM. The CC50 [20] was 5.37 µM, the GI50 [21] was 2.03 µM and the Total growth inhibition (TGI) [21] was 5.15 µM. It also gave a CC50 [21] of over 100 µM, a GI50 [22] of 2.39 µM and a Total growth inhibition (TGI) [22] of 3.19 µM. It also gave a GI50 [23] of 1.68 µM, a Total growth inhibition (TGI) [23] of 3.27 µM and a CC50 [23] of 6.39 µM. It also gave a Total growth inhibition (TGI) [24] of 3.12 µM, a GI50 [24] of 1.58 µM and a CC50 [24] of 6.17 µM. It also gave a GI50 [25] of 1.78 µM, a Total growth inhibition (TGI) [25] of 3.72 µM and a CC50 [25] of 7.77 µM. The GI50 [26] was 5.2 µM, the Total growth inhibition (TGI) [26] was 19 µM and the CC50 [26] was 53.7 µM. It also gave a GI50 [27] of 1.88 µM, a Total growth inhibition (TGI) [27] of 3.39 µM and a Total growth inhibition (TGI) [28] of 5.28 µM. It also gave a GI50 [28] of 2.24 µM and a CC50 [28] of over 100 µM.
